Assay results reported in patent publication US12171230B2, “Herbicidal compositions” (Bayer Aktiengesellschaft, priority 2018, dated 2024).

What was measured:
Assay type in all cases: in vivo
Bidens pilosa = assay: Post-emergence herbicidal action against Bidens pilosa; conditions: for Herbicidal action / Herbicidal action against Bidens pilosa: 21 DAT
Method: (§1) When the observed efficacies exceed the formal sum total of the values of the tests with individual applications, they also exceed the expected value according to Colby, which is calculated using the formula below and is likewise regarded as an indication of synergism (cf. S. R. Colby; in Weeds 15 (1967) p. 20 to 22): E^C=A+B−([…])
(§2) Here: • A=efficacy of the active compound (A) in % at an application rate of a g a.i./ha; • B=efficacy of the active compound (B) in % at an application rate of b g a.i./ha; • E^C=expected value of the effect of the combination (A)+(B) in % at the combined application rate a+b g a.i./ha.
(§3) Seeds or rhizome pieces of mono- and dicotyledonous weeds are placed in sandy loam in pots, covered with soil and grown in a greenhouse under good growth conditions (temperature, air humidity, water supply). Three weeks after sowing, the test plants were treated at the three-leaf stage with the compositions according to the invention. The compositions according to the invention formulated as spray powders or as emulsion concentrates were sprayed onto the green plant parts in various dosages with an application rate of 300 to 800 l/ha of water (equivalent). After the test plants have been left to stand in the greenhouse under optimal growth conditions for about 3 to 4 weeks, the action of the preparations is scored visually in comparison to untreated controls. The compositions according to the invention also have good post-emergence herbicidal activity against a broad spectrum of economically important gramineous and broadleaf weeds.

Kochia scoparia [1] = assay: Post-emergence herbicidal action against Kochia scoparia; conditions: 21 DAT
Abutilon theophrasti [2] = assay: Post-emergence herbicidal action against Abutilon theophrasti; conditions: 21 DAT
Sorghum halepense = assay: Post-emergence herbicidal action against Sorghum halepense
Method: as §1, §2, §3

Setaria viridis = assay: Post-emergence herbicidal action against Setaria viridis; conditions: for Herbicidal action against Setaria viridis / Herbicidal action: 21 DAT
Method: as §1, §2, §3

Amaranthus palmeri = assay: Post-emergence herbicidal action against Amaranthus palmeri; conditions: 21 DAT
Method: as §1, §2, §3

Eleusine indica = assay: Post-emergence herbicidal action against Eleusine indica; conditions: 21 DAT; 1.7 g a.i./ha
Pharbitis purpurea = assay: Post-emergence herbicidal action against Pharbitis purpurea
Method: as §1, §2, §3

Echinochloa crus-galli = assay: Post-emergence herbicidal action against Echinochloa crus-galli; conditions: 21 DAT
Method: as §1, §2, §3

Brachiaria plantaginea = assay: Post-emergence herbicidal action against Brachiaria plantaginea
Source text: (§4) The following abbreviations are used in the description and the tables that follow: • g of a.i./ha=grams of active substance (active ingredient) (=100% active compound) per hectare; • The sum total of the effects of the individual applications is reported under E^A; • expected values according to Colby are each reported under E^C.
(§5) The rating period is reported in days after application (DAT).

Digitaria horizontalis = assay: Post-emergence herbicidal action against Digitaria horizontalis; conditions: A3/Asulam, post-emergence, g of a.i./ha by row: 720, 100, 100 + 720
Source text: as §4, §5

Brachiaria platyphylla = assay: Post-emergence herbicidal action against Brachiaria platyphylla
Method: as §1, §2, §3

Abutilon theophrasti [3] = assay: Post-emergence herbicidal action against Abutilon theophrasti
Source text: as §4, §5

Digitaria sanguinalis = assay: Post-emergence herbicidal action against Digitaria sanguinalis
Method: as §1, §2, §3

Kochia scoparia [4] = assay: Post-emergence herbicidal action against Kochia scoparia
Source text: as §4, §5

Galium aparine = assay: Post-emergence herbicidal action against Galium aparine
Procedure, shortened: (§6)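 Post-emergence foliar application: sandy-loam pots, greenhouse, treatment at three-leaf stage, 300–800 l/ha spray volume. Readout is visual % effect at 3–4 weeks, compared with the Colby expected value for mixtures.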

Alopecurus myosuroides = assay: Post-emergence herbicidal action against Alopecurus myosuroides
Centaurea cyano = assay: Post-emergence herbicidal action against Centaurea cyano; conditions: 50 g of a.i./ha
Procedure, shortened: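 Formulations (spray powders or emulsion concentrates) applied at various doses onto foliage using 300 to 800 l/ha water; plants treated at three-leaf stage, three weeks post-sowing in sandy loam under greenhouse conditions.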

Viola tricolor = assay: Post-emergence herbicidal action against Viola tricolor
[5] = system: Lolium rigidum (resistant biotype); assay: Post-emergence herbicidal action against Lolium rigidum (resistant biotype)
Phalaris minor = assay: Post-emergence herbicidal action against Phalaris minor
Matricaria inodora = assay: Post-emergence herbicidal action against Matricaria inodora
Lamium purpureum = assay: Post-emergence herbicidal action against Lamium purpureum
Procedure, shortened: as §6

Poa annua = assay: Post-emergence herbicidal action against Poa annua
Procedure, shortened: as §6

Bromus sterilis = assay: Post-emergence herbicidal action against Bromus sterilis
Lolium rigidum = assay: Post-emergence herbicidal action against Lolium rigidum
Veronica hederifolia = assay: Post-emergence herbicidal action against Veronica hederifolia; conditions: 14 DAT

CC(C)OC(=O)[C@H]1C[C@@H](NC(=O)C2(C)CC(c3cccc(F)c3)=NO2)CO1 (relative stereo) [Compound A4, isopropyl rel-(2R,4R)-4-[[3-(3-fluorophenyl)-5-methyl-4H-isoxazole-5-carbonyl]amino]tetrahydrofuran-2-carboxylate]
Herbicidal action (Bidens pilosa; 5 g a.i./ha): 10% | Herbicidal action against Bidens pilosa (Bidens pilosa; 5 g of a.i./ha): 10% | Herbicidal action (Bidens pilosa; 15 g a.i./ha): 10% | Herbicidal action against Bidens pilosa (Bidens pilosa; 15 g of a.i./ha): 10% | Herbicidal action (Bidens pilosa; 45 g a.i./ha): 30% | Herbicidal action (Kochia scoparia [1]; 5 g a.i./ha): 10% | Herbicidal action (Kochia scoparia [1]; 15 g a.i./ha): 10% | Herbicidal action against Abutilon theophrasti (Abutilon theophrasti [2]; 5 g of a.i./ha): 10% | Herbicidal action against Abutilon theophrasti (Abutilon theophrasti [2]; 15 g of a.i./ha): 10% | Herbicidal action against Abutilon theophrasti (Abutilon theophrasti [2]; 45 g of a.i./ha): 20% | Herbicidal action against Sorghum halepense (Sorghum halepense; 21 DAT, 15 g of a.i./ha): 10% | Herbicidal action against Setaria viridis (Setaria viridis; 1.5 g of a.i./ha): 10% | Herbicidal action (Setaria viridis; 5 g a.i./ha): 20% | Herbicidal action (Setaria viridis; 15 g a.i./ha): 60% | Herbicidal action against Setaria viridis (Setaria viridis; 15 g of a.i./ha): 60% | Herbicidal action against Amaranthus palmeri (res.) (Amaranthus palmeri; 15 g of a.i./ha): 10% | Herbicidal action against Amaranthus palmeri (res.) (Amaranthus palmeri; 45 g of a.i./ha): 30% | Herbicidal action (Amaranthus palmeri; (res.), 5 g a.i./ha): 10% | Herbicidal action (Eleusine indica): 20% | Herbicidal action (Pharbitis purpurea; 21 DAT, 15 g a.i./ha): 60% | Herbicidal action (Echinochloa crus-galli; 5 g a.i./ha): 10% | Herbicidal action against Echinochloa crus-galli (Echinochloa crus-galli; 15 g of a.i./ha): 20%

COC(=O)NS(=O)(=O)c1ccc(N)cc1 [(B2.4) Asulam]
Herbicidal action 28 DAT against Brachiaria plantaginea (Brachiaria plantaginea; A3/Asulam, post-emergence, g of a.i./ha by row: 720, 100, 100 + 720): 0% | Herbicidal action 28 DAT against Digitaria horizontalis (Digitaria horizontalis; first sub-table): 0% | Herbicidal action 28 DAT against Digitaria horizontalis (Digitaria horizontalis; second sub-table): 0%

CCc1cccc(C)c1N(C(=O)CCl)[C@@H](C)COC [(B2.64) S-Metolachlor]
Herbicidal action 21 DAT against Brachiaria platyphylla (Brachiaria platyphylla; 150 g of a.i./ha): 10% | Herbicidal action 21 DAT against Brachiaria platyphylla (Brachiaria platyphylla; 450 g of a.i./ha): 25% | Herbicidal action 21 DAT against Bidens pilosa (Bidens pilosa; 150 g of a.i./ha): 10% | Herbicidal action 21 DAT against Bidens pilosa (Bidens pilosa; 450 g of a.i./ha): 20% | Herbicidal action 21 DAT against Sorghum halepense (Sorghum halepense; 450 g of a.i./ha): 40% | Herbicidal action 21 DAT against Setaria viridis (Setaria viridis; 50 g of a.i./ha): 30% | Herbicidal action 21 DAT against Abutilon theophrasti (Abutilon theophrasti [3]; 150 g of a.i./ha): 0% | Herbicidal action 21 DAT against Abutilon theophrasti (Abutilon theophrasti [3]; 450 g of a.i./ha): 10% | Herbicidal action 21 DAT against Pharbitis purpurea (Pharbitis purpurea; 150 g of a.i./ha): 0% | Herbicidal action 21 DAT against Pharbitis purpurea (Pharbitis purpurea; 450 g of a.i./ha): 10% | Herbicidal action 21 DAT against Digitaria sanguinalis (Digitaria sanguinalis; 50 g of a.i./ha): 10% | Herbicidal action 21 DAT against Digitaria sanguinalis (Digitaria sanguinalis; 150 g of a.i./ha): 40% | Herbicidal action 21 DAT against Kochia scoparia (Kochia scoparia [4]; 150 g of a.i./ha): 0% | Herbicidal action 21 DAT against Kochia scoparia (Kochia scoparia [4]; 450 g of a.i./ha): 10%

N#Cc1cc(Br)c(O)c(Br)c1 [(B3.1) Bromoxynil]
Herbicidal action against Galium aparine (Galium aparine; 14 DAT, 50 g of a.i./ha): 20% | Herbicidal action against Galium aparine (Galium aparine; 14 DAT, 150 g of a.i./ha): 30% | Herbicidal action against Galium aparine (Galium aparine; 14 DAT, 450 g of a.i./ha): 50% | Herbicidal action against Galium aparine (Galium aparine; 28 DAT, 450 g of a.i./ha): 75% | Herbicidal action against Alopecurus myosuroides (Alopecurus myosuroides; 14 DAT, 150 g of a.i./ha): 15% | Herbicidal action against Alopecurus myosuroides (Alopecurus myosuroides; 14 DAT, 450 g of a.i./ha): 25% | Herbicidal action against Alopecurus myosuroides (Alopecurus myosuroides; 28 DAT, 150 g of a.i./ha): 15% | Herbicidal action against Alopecurus myosuroides (Alopecurus myosuroides; 28 DAT, 450 g of a.i./ha): 25% | Herbicidal action against Centaurea cyanus (Centaurea cyano; 14 DAT): 30% | Herbicidal action against Centaurea cyanus (Centaurea cyano; 28 DAT): 10% | Herbicidal action against Viola tricolor (Viola tricolor; 14 DAT, 50 g of a.i./ha): 15% | Herbicidal action against Viola tricolor (Viola tricolor; 14 DAT, 150 g of a.i./ha): 50% | Herbicidal action against Viola tricolor (Viola tricolor; 14 DAT, 450 g of a.i./ha): 30% | Herbicidal action against Viola tricolor (Viola tricolor; 28 DAT, 50 g of a.i./ha): 25% | Herbicidal action against Viola tricolor (Viola tricolor; 28 DAT, 150 g of a.i./ha): 40% | Herbicidal action against Viola tricolor (Viola tricolor; 28 DAT, 450 g of a.i./ha): 15% | Herbicidal action against Lolium rigidum (resistant biotype) ([5]; 14 DAT, 150 g of a.i./ha): 0% | Herbicidal action against Lolium rigidum (resistant biotype) ([5]; 14 DAT, 450 g of a.i./ha): 15% | Herbicidal action against Lolium rigidum (resistant biotype) ([5]; 28 DAT, 150 g of a.i./ha): 10% | Herbicidal action against Lolium rigidum (resistant biotype) ([5]; 28 DAT, 450 g of a.i./ha): 20% | Herbicidal action against Phalaris minor (Phalaris minor; 14 DAT, 50 g of a.i./ha): 0% | Herbicidal action against Phalaris minor (Phalaris minor; 14 DAT, 150 g of a.i./ha): 10% | Herbicidal action against Phalaris minor (Phalaris minor; 14 DAT, 450 g of a.i./ha): 15% | Herbicidal action against Phalaris minor (Phalaris minor; 28 DAT, 150 g of a.i./ha): 0% | Herbicidal action against Phalaris minor (Phalaris minor; 28 DAT, 450 g of a.i./ha): 15% | Herbicidal action against Matricaria inodora (Matricaria inodora; 14 DAT, 50 g of a.i./ha): 40% | Herbicidal action against Matricaria inodora (Matricaria inodora; 14 DAT, 450 g of a.i./ha): 85% | Herbicidal action against Matricaria inodora (Matricaria inodora; 28 DAT, 50 g of a.i./ha): 15% | Herbicidal action against Matricaria inodora (Matricaria inodora; 28 DAT, 450 g of a.i./ha): 80% | Herbicidal action against Lamium purpureum L. (Lamium purpureum; 14 DAT, 150 g of a.i./ha): 15% | Herbicidal action against Lamium purpureum L. (Lamium purpureum; 14 DAT, 450 g of a.i./ha): 40% | Herbicidal action against Lamium purpureum L. (Lamium purpureum; 28 DAT, 150 g of a.i./ha): 25% | Herbicidal action against Lamium purpureum L. (Lamium purpureum; 28 DAT, 450 g of a.i./ha): 25% | Herbicidal action against Poa annua L. (Poa annua; 14 DAT, 150 g of a.i./ha): 15% | Herbicidal action against Poa annua L. (Poa annua; 14 DAT, 450 g of a.i./ha): 20% | Herbicidal action against Poa annua L. (Poa annua; 28 DAT, 150 g of a.i./ha): 15% | Herbicidal action against Poa annua L. (Poa annua; 28 DAT, 450 g of a.i./ha): 25% | Herbicidal action against Bromus sterilis (Bromus sterilis; 14 DAT, 50 g of a.i./ha): 0% | Herbicidal action against Bromus sterilis (Bromus sterilis; 14 DAT, 150 g of a.i./ha): 10% | Herbicidal action against Bromus sterilis (Bromus sterilis; 14 DAT, 450 g of a.i./ha): 10% | Herbicidal action against Bromus sterilis (Bromus sterilis; 28 DAT, 150 g of a.i./ha): 15% | Herbicidal action against Bromus sterilis (Bromus sterilis; 28 DAT, 450 g of a.i./ha): 20% | Herbicidal action against Lolium rigidum (Lolium rigidum; 14 DAT, 150 g of a.i./ha): 0% | Herbicidal action against Lolium rigidum (Lolium rigidum; 14 DAT, 450 g of a.i./ha): 15% | Herbicidal action against Lolium rigidum (Lolium rigidum; 28 DAT, 150 g of a.i./ha): 10% | Herbicidal action against Lolium rigidum (Lolium rigidum; 28 DAT, 450 g of a.i./ha): 20% | Herbicidal action against Veronica hederifolia (Veronica hederifolia; 150 g of a.i./ha): 0% | Herbicidal action against Veronica hederifolia (Veronica hederifolia; 450 g of a.i./ha): 20%

COc1c(Cl)ccc(-c2nc(C(=O)O)c(Cl)c(N)c2F)c1F [(B5.23) Florpyrauxifen]
Herbicidal action 28 DAT [%] against Brachiaria plantaginea (Brachiaria plantaginea; 30 g of a.i./ha): 40%
